Results from patent US12049474B2, “Nucleoside prodrugs and uses related thereto” (Emory University, priority 2019, dated 2024).
Where a name gives a salt, the structure may show the parent alone. Read-outs that look alike come from different tables or passages of the source.

Legend:
[1] = molecular target: CYP2D6 (Homo sapiens (Human), UniProt P10635); test: biochemical; type: biochemical; conditions: human recombinant CYP2D6, AMMC substrate; read-out: CYP450 IC50 2D6
Experimental: (§1) The CYP450 inhibition assays utilized microsomes from insect cells expressing human recombinant individual cDNA-expressed CYP isoforms 3A4 and 2D6, as well as the fluorogenic probe that produces fluorescent metabolite. Standard inhibitors were co-incubated with fluorogenic substrates and their inhibitory potential (IC50) was determined. Assay conditions in terms of CYP450 protein concentration and time of incubation were standardized, enzyme kinetics parameters of each fluorescent probe substrate were estimated and IC50 values of inhibitors were determined and validated on different days to check reproducibility.
(§2) A 100 mM sodium phosphate buffer was prepared and adjusted to pH 7.4. In a separate falcon tube, a 2× enzyme/substrate (E/S) solution was prepared in phosphate buffer. The final concentration of CYP2D6 (CORNING®) and […] (AMMC) was 10 nM and 4 μM, and CYP3A4 (CORNING®) and 7-benzyloxy-4-(trifluoromethyl) coumarin (BFC) was 20 nM and 40 μM, respectively. In a separate falcon tube, a 2×NADPH regenerating system (NRS) was prepared in phosphate buffer. The final concentration for each component in the assay was as follows: • CYP2D6 assay: 0.008 mM NADPH, 3.3 mM glucose 6-phosphate, 0.4 U of glucose-6-phosphate dehydrogenase per mL
(§3) Both enzymatic assays were conducted in a 96-well microtiter plate (Black, CORNING® COSTAR®) with a final volume of 100 μL. Preparation of the plate began with the addition of 74 μL of the E/S in the first well, and 50 μL to all subsequent wells (from 2-11). The test compounds (1 μL) were dissolved in the first well to give the first row a final volume of 75 μL. A 1:3 serial dilution of the test compound was conducted by removing 25 μL from the first well and diluting it with the second and so forth until the tenth row. Final concentrations yielded a range from 200 μM-0.01 μM. Well no. 11 contained no inhibitor, and well no. 12 contained no enzyme. Both were used as controls for background fluorescence. The plate was incubated for 30 min at 37° C. After incubation, the reaction was initiated by the addition of 50 μL of the 2×NRS to each well.
Immediately (within 1 min) the fluorescence was measured using a microplate reader (BIOTEK® Synergy Neo2). CYP2D6 was monitored at Ex/Em=410/460 nm, and CYP3A4 monitored at Ex/Em=410/538 nm in kinetic mode that scanned every 5 min for 60 mins. Data was exported and analyzed using Graph Pad Prism 7. […] The IC50 value was derived after the data was fitted on a 10-point curve using a four-parameter logistic regression model.

[2] = molecular target: CYP3A4 (Homo sapiens (Human), UniProt P08684); test: Fluorometric CYP450 enzyme inhibition assay, CYP3A4; type: biochemical; conditions: human recombinant CYP3A4, BFC substrate; read-out: CYP450 IC50 3A4
Sequence of CYP3A4 (P08684 whole entry): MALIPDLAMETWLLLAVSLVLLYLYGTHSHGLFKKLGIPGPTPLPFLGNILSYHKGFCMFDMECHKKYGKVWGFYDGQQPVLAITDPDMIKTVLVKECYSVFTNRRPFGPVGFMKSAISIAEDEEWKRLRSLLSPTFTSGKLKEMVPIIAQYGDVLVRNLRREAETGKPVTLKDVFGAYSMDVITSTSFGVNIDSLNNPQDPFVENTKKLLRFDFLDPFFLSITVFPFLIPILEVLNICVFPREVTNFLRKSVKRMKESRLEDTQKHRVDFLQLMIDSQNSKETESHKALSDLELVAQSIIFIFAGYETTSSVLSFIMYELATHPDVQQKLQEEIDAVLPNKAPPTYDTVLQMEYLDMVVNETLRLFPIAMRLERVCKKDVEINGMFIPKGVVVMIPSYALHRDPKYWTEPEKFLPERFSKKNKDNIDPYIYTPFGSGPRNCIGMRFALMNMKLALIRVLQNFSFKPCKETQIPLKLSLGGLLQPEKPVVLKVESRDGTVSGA
Experimental: as §1, §2
as §3, with “The test compounds (1 μL) were dissolved in the first well to give the first row a final volume of 75 μL.” left out
Immediately (within 1 min) the fluorescence was measured using a microplate reader (BIOTEK® Synergy Neo2). […] Data was exported and analyzed using Graph Pad Prism 7. […] The IC50 value was derived after the data was fitted on a 10-point curve using a four-parameter logistic regression model.

[3] = Metabolic stability assay in human liver microsomes (HLM); type: in vitro ADME; conditions: NADPH, sampled 0-120 min; for HLM t1/2: 3 μM test compound
Experimental: The LC-MS/MS analysis was performed using Agilent 1260 Infinity II HPLC, coupled with an Agilent G6460 triple quadrupole mass spectrometer (Agilent Technologies, USA). All the data were acquired employing Agilent 6460 Quantitative Analysis data processing software.
Reverse-phase HPLC separation for each compound was achieved either on an Agilent Porshell 120 EC-C8 column (2.1×50 mm, 2.7 μm), or on an Agilent Zorbax XDB C18 column (2.1×50 mm, 3.5 μm) with a mobile phase composed of methanol-water-formic acid or acetonitrile-water-formic acid (0.1%) at a flow rate of 0.5 mL/min (changes for some compounds). Each method was developed in the presence of an internal standard (ISTD) d5-7-ethoxy coumarin. The column temperature was maintained at 40° C. for most of the samples otherwise noted. The detection was operated in the Agilent JetStream electrospray positive ionization using multiple reaction monitoring mode (MRM).
Other MS conditions were as follows: dwell time 100 ms; gas flow 10 L/min; nebulizer pressure 45 psi; delta EMV 200 V; fragmentor voltage and collision energy for individual compounds vary.
Test compounds were dissolved in 100% DMSO or 100% MeOH to make 10 mM stock solutions. Verapamil (Sigma Aldrich) aided as a positive control and was dissolved in 100% DMSO to make 10 mM stock solutions. The 10 mM stock solution of test and control compounds were further diluted in potassium phosphate buffer (100 mM, pH 7.4) to 500 μM to ensure the organic solvent content was <0.2%. Human liver microsomes (HLMs) were purchased from Xenotech at 20 mg/mL. NADPH (Sigma Aldrich) 10 mM stocks were prepared in deionized water.
The HLM assay was prepared in a 1.5 mL Eppendorf tube with a final volume of 1100 μL for duplicate runs. Each reaction contained phosphate buffer (928.4 μL), liver microsomes (55 μL), and test compound resulting in a final concentration of 3 μM (6.6 μL of 500 μM). The reaction was initiated with 110 μL of 10 mM NADPH. Aliquots (100 μL) were removed in duplicate at 0, 15, 30, 60, 120 min (for prodrug compounds) and 0, 5, 10, 15, 30 min (verapamil, positive control compound) time intervals and quenched in cold […] of 100% methanol which contained internal standard (ISTD: d5-7-ethoxy coumarin 4 μM). Before centrifugation each of the aliquoted tubes were vortexed to make sure compounds were in the solution. The aliquots were centrifuged at 12,000 g for 5 min and the supernatant removed and placed in an LC-MS vial. Each time point was assessed using LC-MS and the area, based on the extracted ion, was integrated with respect to the ISTD. Positive controls were conducted at a final volume of 550 μL to give each time point in a single run. A no-NADPH negative control with test or control compound was performed in a single run (150 μL) at the longest time point. Controls were processed and analyzed like the test compounds. Each time point was run in duplicates followed by in-between blank washes to avoid the carryover and to equilibrate the column.

[4] = tested on: HEK293 cells; conditions: 50% cytotoxic concentration; italicized results: absence of human serum albumin
[5] = tested on: HIV; test: microbe, parasite or virus in culture; type: cell-based; conditions: italicized results: absence of human serum albumin
[6] = dogs, cited from earlier work

Sequence of CYP2D6 (P10635 whole entry, canonical isoform): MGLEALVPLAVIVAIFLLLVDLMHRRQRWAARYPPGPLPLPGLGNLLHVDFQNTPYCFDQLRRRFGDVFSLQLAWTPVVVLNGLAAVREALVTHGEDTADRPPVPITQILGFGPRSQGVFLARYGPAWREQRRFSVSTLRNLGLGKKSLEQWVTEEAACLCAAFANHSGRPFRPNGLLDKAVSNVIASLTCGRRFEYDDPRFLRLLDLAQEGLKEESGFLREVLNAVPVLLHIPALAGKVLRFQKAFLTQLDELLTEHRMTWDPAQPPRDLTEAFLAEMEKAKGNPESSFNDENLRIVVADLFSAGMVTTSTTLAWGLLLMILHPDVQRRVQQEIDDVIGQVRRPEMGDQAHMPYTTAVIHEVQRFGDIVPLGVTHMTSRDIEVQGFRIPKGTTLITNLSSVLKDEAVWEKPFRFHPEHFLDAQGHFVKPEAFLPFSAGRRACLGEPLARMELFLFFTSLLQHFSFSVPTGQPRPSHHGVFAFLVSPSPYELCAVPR

SMILES | IC50 [1] [µM] | IC50 [2] [µM] | HLM t1/2 [3] [min] | melting point | CC50 [4] [µM] | IC50 ([5]; Human immunodeficiency virus 1, HEK293, read-out: HIV IC50, pseudoviral particles, HEK293 cells) [µM] | IC50 ([5]; read-out: HIV IC50, pseudoviral particles, HEK293 cells) [µM] | half-life at 3 µM ([3]; pH 7.4, 3 μM test compound, read-out: HLM t1/2) [min] | fraction of dose converted to plasma TFV ([6]; single oral dose) [%] | fraction of dose sequestered for toxic side effects ([6]; single oral dose) [%] | fraction of dose that achieved access to plasma unscathed ([6]; single oral dose) [%] | fraction of a single oral dose extracted by the liver [6] [%]
CCCCCCCCCCCCCCCCCCOP(=O)(O)CO[C@H](C)Cn1cnc2c(N)ncnc21.N [MD-1-105, Ammonium Octadecyl (R)-(((1-(6-amino-9H-purin-9-yl)propan-2-yl)oxy)methyl)phosphonate] | 20 | 52.9 | 13 | 154 to 184 °C (dec.) | 84.1 | – | – | – | – | – | – | –
CCCCCCCCCCCCCCCOP(=O)(O)CO[C@H](C)Cn1cnc2c(N)ncnc21.N [MD-1-106, Ammonium Pentadecyl (R)-(((1-(6-amino-9H-purin-9-yl)propan-2-yl)oxy)methyl)phosphonate] | 22 | 54.9 | 13 | 162 to 190 °C (dec.) | > 100 | – | – | – | – | – | – | –
CC(C)OC(=O)[C@H](C)N[P@](=O)(CO[C@H](C)Cn1cnc2c(N)ncnc21)Oc1ccccc1 [TAF, tenofovir alafenamide fumarate] | > 50 | 21 | – | – | – | 0.002 | 0.001 | 26 | 17 | 82 | 18 | 65
